Read-outs that look alike come from different tables or passages of the source.
Key:
[1] = cited from earlier work
Male Brown Norway Rats = settings: rat, in vivo, ip, 2 days
Experimental: Thymus weight reduction studies were performed in accordance to the NIH GUIDE TO THE CARE AND USE OF LABORATORY ANIMALS and the Animal Welfare Act in an AAALAC-accredited program. Male Brown Norway Rats (200-250 g, Charles River, Bloomington, Mass., USA) were used in these studies. The effect of test steroid compounds compared to a control group was studied on thymus involution. […] Rats were dosed i.p. with test compound QD for two days. Twenty four hours after the 2nd dose, animals were euthanized with pentobarbital (125 mg/kg, i.p.). The thymus were removed and weighed and the results expressed as a percentage thymus involution. Doses are expressed in mg/kg. “NS” means not statistically significant.

SMILES: Oc1cccc(Nc2ncc(F)c(Nc3cccc(O)c3)n2)c1 [Example R112]
- improvement from baseline measurements of symptoms associated with chronic nasal congestion ([1]; from baseline (prior to drug initiation)): up to 38%
- absolute difference over placebo, symptoms associated with chronic nasal congestion ([1]; versus placebo, absolute): 9%
- relative improvement over placebo, symptoms associated with chronic nasal congestion ([1]; versus placebo, relative): greater than 20%

SMILES: CC12CCC(=O)C=C1CCC1C2[C@@H](O)CC2(C)C1CC[C@]2(O)C(=O)CSc1nc2ccccc2s1 (stereo partly drawn) [Inventive Compound A]
- % Thymus Involution (Male Brown Norway Rats; 30 mg/kg): −4 ± 7%

SMILES: CC12C[C@H](O)[C@@]3(F)C(CCC4=CC(=O)CCC43C)C1CC[C@]2(O)C(=O)CSc1nc2ccccc2s1 (stereo partly drawn) [Inventive Compound B]
- % Thymus Involution (Male Brown Norway Rats; 30 mg/kg): 10 ± 4%

SMILES: C[C@@H]1CC2C3CCC4=CC(=O)C=CC4(C)[C@@]3(F)[C@@H](O)CC2(C)[C@@]1(O)C(=O)CSc1nc2ccccc2s1 (stereo partly drawn) [US′120]
- % Thymus Involution (Male Brown Norway Rats; 10 mg/kg): 62 ± 3%

Reference: patent US20110262368A1, “C21 THIOETHERS AS GLUCOCORTICOID RECEPTOR AGONISTS” (Schering Corporation, priority 2007, published 2011)
